Experimental data: patent US20150051202A1, “TRIAZOLOPYRAZINE DERIVATIVES” (Merck Patent GmbH, priority 2012, published 2015)

Legend:
GCN2 = GCN2 (Homo sapiens, UniProt Q9P2K8); test: GCN2 enzyme assay (TR-FRET Lanthascreen, GFP-eIF2alpha substrate); format: biochemical
From the text: GCN2: Assay Principle & Conditions
This assay can quantificate the activity of the serin kinase GCN2 (general control non-derepressible-2).
This kinase is involved in the stress metabolism of cells. It is activated upon starvation (amino acid depletion). Its natural substrate is eIF2a (eukaryotic initiation factor 2 alpha subunit), a translation factor, which gets activated (phosphorylated) by GCN2 in case of an amino acid bottleneck in the cells. This in turn leads to a halt of the protein synthesis. Inhibition of GCN2 results in stopping this mechanism: The cell can not stop protein production upon “starvation” stress.
The assay is run in two steps: the enzymatic reaction and the detection step. In the first step GCN2 is incubated with 10 μM ATP and 80 nM of the GFP-labelled substrate eIF2alpha at room temperature.
The enzymatic reaction is stopped by addition of EDTA. The amount of phosphorylated eIF2alpha is determined by TR-FRET (Lanthascreen): A complex is formed consisting of antibody and GFP labelled phospho-eIF2a, which allows a FRET upon exitation at 340 nm.
Final Concentrations in the Enzymatic Reaction • Hepes, pH 7.0 50 mM • MgCl2 10 mM • MnCl2 5 mM • BSA 0.1% • DMSO 1% • ATP 10 uM • DTT 2 mM • GFP-eIF2a 80 nM (substrate) • GCN2 30 nM (enzyme)

SYK = molecular target: T1, SYK (Homo sapiens, UniProt P43405); test: SYK enzyme assay (Flash plate assay / Caliper mobility shift assay); format: biochemical
T1 construct: purchased BPS Bioscience, CA, USA
Protocol: The kinase assay is performed either as 384-well Flashplate assay (for e.g. Topcount measurement) or as 384-well Image-Flashplate assay (for LEADseeker measurement).
2.5 nM SYK, 400 nM Biotin-Aha-Aha-[…]
and 10 μM ATP (spiked with 0.3 μCi 33P-ATP/well) are incubated in a total volume of 50 μl (60 mM Hepes, 10 mM MgCl2, 1.2 mM Dithiothreitol, 0.02% Brij35, 0.1% BSA, pH 7.5) with or without test compound for 1 hours at 30° C. The reaction is stopped with 25 μl 200 mM EDTA. After 30 Min at 30° C. the liquid is removed and each well washed thrice with 100 μl 0.9% sodium chloride solution. Non-specific reaction is determined in presence of 0.1 μM Staurosporine. Radioactivity is measured with Topcount (when using Flashplates) or with LEADseeker (when using Image-Flashplates) respectively. Results (e.g. IC50-values) are calculated with program tools provided by the IT-department (e.g. Symyx Assay Explorer, Genedata Screener).
Enzymatic Assays Using the Caliper LifeSciences Technology
The assays described here are performed on the Caliper Life Sciences LC3000 system This technology provides data on enzyme activity via measurement of the relative amounts of phosphorylated or unphosphorylated fluorescently labelled substrate peptide at the end of an enzymatic reaction.
These different states of peptide are resolved by applying a potential difference across the sample. The presence of the charged phosphate group on the product (as opposed to the substrate) causes a different peptide mobility between the two peptides. This is visualized by excitation of the fluorescent label on the substrate and product peptides and represented as peaks within the analysis software.
In order to measure inhibitor activity of kinase inhibitors on this technology, a TTP Mosquito liquid handling instrument is used to place 0.25 ul of the appropriate concentration of inhibitor in 100% DMSO (for a dose response curve calculation) into each well of a 384-well plate. To this reaction components are added to a final volume of 25 ul. The table below indicates the sequences and concentrations for the assays described in this report. Standard components are 1 mM DTT (Sigma, D0632), 1 mM MgCl2 (Sigma, M1028), 100 mM HEPES pH 7.5 (Calbiochem, 391338), 0.015% Brij-35 (Sigma, B4184).
The reaction is incubated for 90 min at 25 C, and then stopped by the addition of 70 ul of Stop buffer (100 mM HEPES pH 7.5, 0.015% Brij-35, 10 mM EDTA (Sigma, E7889)).
The plate is read on a Caliper LC 3000 in an Off-Chip mobility shift assay format, on a 12-sipper chip. Unphosphorylated substrate and phosphorylated product peptide resolve as separate peaks allowing direct measurement of percentage of conversion of substrate to product. The percent conversion can be plotted against concentration of inhibitor to produce a sigmoidal dose response curve, from which an IC50 can be calculated using GeneData Condoseo or a similar product.

[1] = 100% corresponds to zero effect, −50% corresponds to IC50

Chain of GCN2 (Q9P2K8 whole entry): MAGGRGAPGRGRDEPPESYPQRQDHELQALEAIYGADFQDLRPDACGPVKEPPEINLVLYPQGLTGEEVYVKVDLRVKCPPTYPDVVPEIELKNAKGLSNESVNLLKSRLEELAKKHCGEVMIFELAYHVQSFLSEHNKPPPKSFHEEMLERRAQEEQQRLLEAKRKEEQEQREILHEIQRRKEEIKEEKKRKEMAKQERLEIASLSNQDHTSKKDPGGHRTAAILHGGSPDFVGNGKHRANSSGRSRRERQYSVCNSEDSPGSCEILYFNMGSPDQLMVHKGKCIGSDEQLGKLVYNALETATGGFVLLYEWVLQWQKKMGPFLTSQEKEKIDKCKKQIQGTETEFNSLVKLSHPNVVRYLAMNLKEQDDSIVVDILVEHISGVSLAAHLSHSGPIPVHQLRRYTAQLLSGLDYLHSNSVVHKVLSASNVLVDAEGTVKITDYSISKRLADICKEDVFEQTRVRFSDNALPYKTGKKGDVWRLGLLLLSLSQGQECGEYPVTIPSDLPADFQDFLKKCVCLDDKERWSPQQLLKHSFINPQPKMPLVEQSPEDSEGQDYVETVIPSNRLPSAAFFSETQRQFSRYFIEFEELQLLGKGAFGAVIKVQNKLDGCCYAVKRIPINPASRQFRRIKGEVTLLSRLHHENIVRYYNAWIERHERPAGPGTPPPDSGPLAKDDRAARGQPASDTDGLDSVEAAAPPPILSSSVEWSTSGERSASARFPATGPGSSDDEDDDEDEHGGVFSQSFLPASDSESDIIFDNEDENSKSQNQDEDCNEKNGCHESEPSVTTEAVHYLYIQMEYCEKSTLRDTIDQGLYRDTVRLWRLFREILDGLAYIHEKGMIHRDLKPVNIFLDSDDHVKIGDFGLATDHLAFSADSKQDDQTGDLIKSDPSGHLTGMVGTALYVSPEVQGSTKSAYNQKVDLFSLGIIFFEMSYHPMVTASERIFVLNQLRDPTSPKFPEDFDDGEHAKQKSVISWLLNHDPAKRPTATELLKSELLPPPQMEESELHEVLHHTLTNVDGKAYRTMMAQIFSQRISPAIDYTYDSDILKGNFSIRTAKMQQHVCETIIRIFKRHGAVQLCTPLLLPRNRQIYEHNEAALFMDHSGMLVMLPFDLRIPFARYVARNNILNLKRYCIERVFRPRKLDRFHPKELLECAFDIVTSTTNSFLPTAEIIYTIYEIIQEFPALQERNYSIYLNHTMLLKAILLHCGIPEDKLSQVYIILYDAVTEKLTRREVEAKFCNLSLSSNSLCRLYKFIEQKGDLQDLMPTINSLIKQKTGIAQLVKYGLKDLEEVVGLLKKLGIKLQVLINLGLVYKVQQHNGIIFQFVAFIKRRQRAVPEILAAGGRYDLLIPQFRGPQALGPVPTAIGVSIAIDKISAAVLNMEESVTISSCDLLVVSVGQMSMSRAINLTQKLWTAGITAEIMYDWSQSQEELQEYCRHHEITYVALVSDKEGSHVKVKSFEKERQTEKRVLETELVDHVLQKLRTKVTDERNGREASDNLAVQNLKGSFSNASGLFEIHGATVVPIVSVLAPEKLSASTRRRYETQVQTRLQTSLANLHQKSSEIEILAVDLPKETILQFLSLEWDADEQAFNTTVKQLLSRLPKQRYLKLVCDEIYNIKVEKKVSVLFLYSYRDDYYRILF

IC50 (GCN2) | SYK (enzyme assay) % at 3 μM (SYK; [1]) | IC50 (SYK) | SYK (enzyme assay) % at 0.3 μM (SYK; at 0.3 μM, 100% corresponds to zero effect, −50% corresponds to IC50) | Compound
1 to 5 µM | −23@3% |  |  | CN1CCN(c2ccc(Nc3nc4cncc(Nc5cnn(C)c5)n4n3)cc2)CC1 [Compound A53, N2-[4-(4-methyl-piperazin-1-yl)-phenyl]-N5-(1-methyl-1H-pyrazol-4-yl)-[1,2,4] triazolo[1,5-a]pyrazine-2,5-diamine]
< 1 µM |  | < 1 µM |  | Cc1ccc(-c2cncc3nc(Nc4ccc(N5CCOCC5)cc4)nn23)o1 [Compound A55, [5-(5-methyl-furan-2-yl)-[1,2,4]triazolo[1,5-a]pyrazin-2-yl]-(4-morpholin-4-yl-phenyl)-amine]
1 to 5 µM |  | 1 to 5 µM |  | c1cc(N2CCOCC2)ccc1Nc1nc2cncc(-c3cnn(CCN4CCOCC4)c3)n2n1 [Compound A56, {5-[1-(2-morpholin-4-yl-ethyl)-1H-pyrazol-4-yl]-[1,2,4]triazolo[1,5-a]pyrazin-2-yl}-(4-morpholin-4-yl-phenyl)-amine]
1 to 5 µM |  | 5 to 10 µM |  | Cn1cc(-c2cncc3nc(Nc4cccc(C#N)c4)nn23)cn1 [Compound A57, 3-[5-(1-methyl-1H-pyrazol-4-yl)-[1,2,4]triazolo[1,5-a]pyrazin-2-ylamino]-benzonitrile]
< 1 µM | −34@3% |  |  | O=C1Cc2cc(Nc3nc4cncc(-c5ccc(CN6CCOCC6)s5)n4n3)ccc2N1 [Compound A58, 5-[5-(5-morpholin-4-ylmethyl-thiophen-2-yl)-[1,2,4]triazolo[1,5-a]pyrazin-2-ylamino]-1,3-dihydro-indol-2-one]
< 1 µM |  | 1 to 5 µM |  | Cn1cc(-c2cncc3nc(Nc4ccc5c(c4)OCCO5)nn23)cn1 [Compound A59, (2,3-dihydro-benzo[1,4]dioxin-6-yl)-[5-(1-methyl-1H-pyrazol-4-yl)-[1,2,4]triazolo[1,5-a]pyrazin-2-yl]-amine]
1 to 5 µM |  | < 1 µM |  | Cn1cc(-c2cncc3nc(Nc4ccc(-c5ccncc5)cc4)nn23)cn1 [Compound A60, [5-(1-methyl-1H-pyrazol-4-yl)-[1,2,4]triazolo[1,5-a]pyrazin-2-yl]-(4-pyridin-4-yl-phenyl)-amine]
< 1 µM |  | 1 to 5 µM |  | Cn1cc(-c2cncc3nc(Nc4ccc(CN5CCOCC5)cc4)nn23)cn1 [Compound A61, [5-(1-methyl-1H-pyrazol-4-yl)-[1,2,4]triazolo[1,5-a]pyrazin-2-yl]-(4-morpholin-4-ylmethyl-phenyl)-amine]
< 1 µM | −5@3% |  |  | c1cc(N2CCOCC2)ccc1Nc1nc2cncc(-c3ccc(CN4CCOCC4)s3)n2n1 [Compound A62, [5-(5-morpholin-4-ylmethyl-thiophen-2-yl)-[1,2,4]triazolo[1,5-a]pyrazin-2-yl]-(4-morpholin-4-yl-phenyl)-amine]
1 to 5 µM | −30@3% |  |  | N#Cc1cc(-c2cncc3nc(Nc4ccc(N5CCOCC5)cc4)nn23)ccc1OC1CCOCC1 [Compound A63, 5-[2-(4-morpholin-4-yl-phenylamino)-[1,2,4]triazolo[1,5-a]pyrazin-5-yl]-2-(tetrahydro-pyran-4-yloxy)-benzonitrile]
< 1 µM |  | 1 to 5 µM |  | Cc1cc(Nc2nc3cncc(-c4cnn(C)c4)n3n2)ccc1OC(F)(F)F [Compound A64, [5-(1-methyl-1H-pyrazol-4-yl)-[1,2,4]triazolo[1,5-a]pyrazin-2-yl]-(3-methyl-4-trifluoromethoxy-phenyl)-amine]
< 1 µM |  | 5 to 10 µM |  | Cc1cc(Nc2nc3cncc(-c4cnn(C)c4)n3n2)ccc1NC(=O)C1CCC1 [Compound A65, cyclobutanecarboxylic acid {2-methyl-4-[5-(1-methyl-1H-pyrazol-4-yl)-[1,2,4]triazolo[1,5-a]pyrazin-2-ylamino]-phenyl}-amide]
< 1 µM |  | 1 to 5 µM |  | Cn1cc(-c2cncc3nc(Nc4ccc(C(=O)N5CCOCC5)cc4)nn23)cn1 [Compound A66, {4-[5-(1-methyl-1H-pyrazol-4-yl)-[1,2,4]triazolo[1,5-a]pyrazin-2-ylamino]-phenyl}-morpholin-4-yl-methanone]
< 1 µM |  | 1 to 5 µM |  | COc1cc(Nc2nc3cncc(-c4cnn(C)c4)n3n2)ccc1N1CCN(C)CC1 [Compound A67, [3-methoxy-4-(4-methyl-piperazin-1-yl)-phenyl]-[5-(1-methyl-1H-pyrazol-4-yl)-[1,2,4]triazolo[1,5-a]pyrazin-2-yl]-amine]
< 1 µM |  | 1 to 5 µM |  | Cc1cc(Nc2nc3cncc(-c4cnn(C)c4)n3n2)ccc1CN1CCOCC1 [Compound A68, (3-methyl-4-morpholin-4-ylmethyl-phenyl)-[5-(1-methyl-1H-pyrazol-4-yl)-[1,2,4]triazolo[1,5-a]pyrazin-2-yl]-amine]
< 1 µM |  | 1 to 5 µM |  | Cc1cc(Nc2nc3cncc(-c4cnn(C)c4)n3n2)ccc1C(=O)NCC1CC1 [Compound A69, N-cyclopropylmethyl-2-methyl-4-[5-(1-methyl-1H-pyrazol-4-yl)-[1,2,4]triazolo[1,5-a]pyrazin-2-ylamino]-benzamide]
< 1 µM |  |  | −12@0.3% | COc1cc(Nc2nc3cncc(-c4cnn(C)c4)n3n2)ccc1C(=O)NCC1CC1 [Compound A70, N-cyclopropylmethyl-2-methoxy-4-[5-(1-methyl-1H-pyrazol-4-yl)-[1,2,4]triazolo[1,5-a]pyrazin-2-ylamino]-benzamide]
< 1 µM |  | 1 to 5 µM |  | Cc1cc(Nc2nc3cncc(-c4cnn(C)c4)n3n2)ccc1C(=O)NC1CC1 [Compound A71, N-cyclopropyl-2-methyl-4-[5-(1-methyl-1H-pyrazol-4-yl)-[1,2,4]triazolo[1,5-a]pyrazin-2-ylamino]-benzamide]
< 1 µM |  | 5 to 10 µM |  | COc1cc(Nc2nc3cncc(-c4cnn(C)c4)n3n2)ccc1C(=O)NC1CC1 [Compound A72, N-cyclopropyl-2-methoxy-4-[5-(1-methyl-1H-pyrazol-4-yl)-[1,2,4]triazolo[1,5-a]pyrazin-2-ylamino]-benzamide]
< 1 µM |  | 1 to 5 µM |  | Cc1cc(Nc2nc3cncc(-c4cnn(C)c4)n3n2)ccc1C(=O)N1CCOCC1 [Compound A73, {2-methyl-4-[5-(1-methyl-1H-pyrazol-4-yl)-[1,2,4]triazolo[1,5-a]pyrazin-2-ylamino]-phenyl}-morpholin-4-yl-methanone]
5 to 10 µM | 4@3% |  |  | Cn1cc(-c2cncc3nc(NC(=O)C4CCNCC4)nn23)cn1 [Compound A74, piperidine-4-carboxylic acid [5-(1-methyl-1H-pyrazol-4-yl)-[1,2,4]triazolo[1,5-a]pyrazin-2-yl]-amide]
< 1 µM | −21@3% |  |  | COc1cc(Nc2nc3cncc(-c4cnn(CCN5CCOCC5)c4)n3n2)ccc1N1CCN(C)CC1 [Compound A75, [3-methoxy-4-(4-methyl-piperazin-1-yl)-phenyl]-{5-[1-(2-morpholin-4-yl-ethyl)-1H-pyrazol-4-yl]-[1,2,4]triazolo[1,5-a]pyrazin-2-yl}-amine]
